In publication PMC8151276, “An Integrated Approach toward NanoBRET Tracers for Analysis of GPCR Ligand Engagement” (Molecules, 2021):

Experiments:
[1] = biological target: T1, C5AR1 (Homo sapiens, UniProt P21730); assay: NanoBRET screen HiBiT-C5AR1 in HEK293; type: binding; conditions: C5AR1
T1 construct: purchased Promega (in-house HiBiT-GPCR construct library, NanoBRET)
T1 sequence (P21730 1-350): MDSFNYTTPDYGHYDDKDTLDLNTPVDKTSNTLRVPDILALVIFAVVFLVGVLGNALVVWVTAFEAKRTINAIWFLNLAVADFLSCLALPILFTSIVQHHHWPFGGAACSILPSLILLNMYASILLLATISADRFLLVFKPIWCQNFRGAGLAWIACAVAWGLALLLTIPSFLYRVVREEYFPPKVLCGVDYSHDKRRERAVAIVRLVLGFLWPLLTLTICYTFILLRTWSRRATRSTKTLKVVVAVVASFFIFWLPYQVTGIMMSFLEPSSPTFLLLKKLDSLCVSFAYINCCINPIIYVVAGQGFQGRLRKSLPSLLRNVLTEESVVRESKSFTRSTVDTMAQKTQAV
Procedure: (§1) Each tracer candidate was screened across the entire library of HiBiT-GPCR constructs using NanoBRET as the detection modality. As depicted in Figure 4A, the specificity of interactions was evaluated through decrease in BRET due to competitive displacement of a bound tracer by excess parental compound. Each tracer was analyzed for binding to each HiBiT-GPCR fusion in the absence and in the presence of competing parental compound. Briefly, HEK293 cells were transfected with HiBiT-GPCR constructs diluted into promoterless DNA to reduce expression and maximize translocation to the cell surface. Each tracer candidate was then screened at concentrations of 1 μM and 0.1 μM across cells expressing these fusions. Cells were treated for 1.5 h with tracer either alone or in the presence of 20 μM competing parental compound (i.e., control). BRET was measured upon addition of purified LgBiT and subsequent complementation with HiBiT genetically fused to a GPCR. The specificity of interactions was assessed through a decrease in BRET signal due to competitive displacement of the bound tracer. To further gauge the robustness of these interactions, the fold response over the control (i.e., BRETtracer/BRETcontrol) was calculated. We chose a 1.5-fold response, which translates to ≥7-fold signal over noise as the minimal threshold required to score an interaction as positive. […]. Below we highlight the screening results obtained for our exemplary fluorescent tracers based on Clozapine, Amitriptyline and AZD1283.
(§2) HiBiT-GPCR DNA constructs were diluted in 10 mM Tris pH 8 to a final concentration of 0.01 μg/μL, arrayed in 96-well plates and stored at −20 °C. For transfection, HEK293 cells were suspended in Opti-MEM (without phenol red) supplemented with 2% fetal bovine serum (Seradigm) and 100 units/mL penicillin–streptomycin (Gibco) at a final concentration of 220,000 cells/mL and dispensed into white 96-well plates at 90 μL/well. Subsequent transfections and screens were carried using an Agilent Bravo Automated Liquid Handling Platform. First, the 96-well HiBiT DNA arrays were diluted 25-fold in Opti-MEM (without serum or phenol red) to a final concentration of 0.0004 μg/μL and 20 μL of the diluted DNAs were transferred into new 96-well plates. Next, promoterless carrier DNA (1 μg/μL) was diluted 25-fold (0.04 μg/μL) and then dispensed into the diluted arrays at 20 μL/well. Following brief mixing, Viafect transfection reagent (Promega) diluted 16-fold into Opti-MEM was dispensed into the plates at 40 μL/well. After mixing by pipetting, plates were incubated for 10 min on the pipetting station deck. The DNA-transfection reagent complexes were then added to plates containing cells. To facilitate the screen, 10 μL of DNA-transfection reagent complexes were added in duplicates to the top 4 and bottom 4 rows, resulting in two identical 48-well arrays per plate. Plates with transfected cells were incubated for 18–20 h at 37 °C/5% CO2. A screen of each tracer across the entire library using two different concentrations requires duplicate plates of transfected cells. Depending on the number of tracers being screened, transfections can be scaled up using the same ratios. The next day, for each tracer, four 20× screening solutions in tracer dilution buffer (Promega) were prepared: two duplicates at final concentration of 20 μM and two duplicates at a final concentration of 2 μM. A competing unmodified compound was added to one of each duplicate at a final concentration of 400 μM. The four resulting solutions were diluted 4-fold in Opti-MEM without serum or phenol red to generate 5× solutions (5 µM and 0.5 µM tracer +/− 100 μM competing compound). To screen the library, a BioTek MultiFlo FX liquid dispenser was used to dispense 22.5 µL of tracer solution to the top 4 rows and 22.5 µL tracer + competing compound solution to the 4 bottom rows. Plates were briefly mixed on an orbital shaker and incubated for 1.5 h at room temperature. […]

[2] = biological target: T2, TACR2 (Homo sapiens, UniProt P21452); assay: NanoBRET screen HiBiT-TACR2 in HEK293; type: binding; conditions: TACR2
T2 construct: purchased Promega (in-house HiBiT-GPCR construct library, NanoBRET)
T2 sequence (P21452 1-398): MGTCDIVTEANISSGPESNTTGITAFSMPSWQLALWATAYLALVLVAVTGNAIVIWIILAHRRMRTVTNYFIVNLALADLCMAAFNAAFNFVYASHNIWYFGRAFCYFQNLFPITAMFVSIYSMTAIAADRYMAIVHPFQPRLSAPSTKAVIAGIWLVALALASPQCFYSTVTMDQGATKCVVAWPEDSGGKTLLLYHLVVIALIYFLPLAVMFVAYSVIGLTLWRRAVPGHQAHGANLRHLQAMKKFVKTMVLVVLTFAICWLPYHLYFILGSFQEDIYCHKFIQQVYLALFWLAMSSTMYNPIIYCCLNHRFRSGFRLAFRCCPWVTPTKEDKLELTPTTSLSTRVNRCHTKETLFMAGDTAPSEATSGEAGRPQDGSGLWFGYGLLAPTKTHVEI
Procedure: as §1, §2

| Structure (SMILES) | NanoBRET Fold Response ([1]; tracer 0.1μM) | NanoBRET Fold Response ([1]; tracer 1μM) | NanoBRET Fold Response ([2]; tracer 0.1μM) | NanoBRET Fold Response ([2]; tracer 1μM) |
| --- | --- | --- | --- | --- |
| CC(C)N(CC[C@H](c1ccccc1)c1cc(CCNC(=O)CCOCCOCCOCCOCCNC(=O)CCc2ccc3n2[B-](F)(F)[N+]2=C(c4ccc[nH]4)C=CC2=C3)ccc1O)C(C)C [Tolterodine-2-NB590] | 0.95 | 1.08 | 0.87 | 1.41 |
| CC(C)N(CC[C@H](c1ccccc1)c1cc(CCNC(=O)c2ccc(CNC(=O)CCc3ccc4n3[B-](F)(F)[N+]3=C(c5ccc[nH]5)C=CC3=C4)cc2)ccc1O)C(C)C [Tolterodine-BZ-NB590] | 1.01 | 1.11 | 1.38 | 1.40 |
| CCCn1c(=O)c2[nH]c(-c3ccc(OCC(=O)NCCNC(=O)CCOCCNC(=O)c4ccc(CNC(=O)CCc5ccc6n5[B-](F)(F)[N+]5=C(c7ccc[nH]7)C=CC5=C6)cc4)cc3)nc2n(CCC)c1=O [XAC-3-NB590] | 0.95 | 1.04 | 0.96 | 1.21 |
